Data from publication PMC12663137 (Nature Communications, 2025).
Several values for one entry are separate records, joined by “and”; a condition that tells them apart may be missing. Equal entries are not always repeated.

Legend:
SV2AEM = target: T1, SV2AEM (Homo sapiens, UniProt Q7L0J3); test: Association kinetics of 3H-UCB-J after pre-incubation with UCB1244283 (Fig. 4F); assay type: binding
T1 construct: expressed in transfected cells; host or cells: HEK293 (ATCC CRL-1573), crude membranes (transient transfection or baculovirus)
Protocol: (§1) Ligand binding studies were carried out using crude membranes prepared from HEK293 cells (ATCC, CRL-1573) overexpressing mVenus-SV2AWT or SV2AEM. Membranes were prepared either from transiently transfected cells or from baculovirus-infected cells as described previously. Cells were washed with DPBS (Ca^2+ and Mg^2+ free), followed by resuspending in cold SH buffer (10 mM HEPES-Tris pH 7.4, 320 mM sucrose) containing protease inhibitor cocktail (MedChemExpress) to a density of 10^7 cells/ml. This cell suspension was homogenized by passing through a bead homogenizer (Isobiotec) with 10-micron clearance bead on ice. The lysate was then centrifuged at 4000 × g for 5 min at 4 °C, and the supernatant was aliquoted, frozen in liquid nitrogen, and stored at −80 °C. The mVenus fluorescence estimated using fluorescence size-exclusion chromatography (FSEC) was used to normalize expression levels of mVenus-SV2A mutants studied as detailed previously. For all binding studies, membranes containing […] protein (estimated by BCA method) per reaction were used.
Residual radioligand binding observed in presence of 10 µM of ^1H-UCB-J was considered as background binding.

SV2A WT and mutants [1] = target: T2, SV2A WT and mutants (Homo sapiens, UniProt Q7L0J3, M301A); test: Modulatory effect of 30 µM UCB1244283 on 3H-UCB-J binding, effect of mutations (Fig. 4D); conditions: M301A; 30 µM; enhancement in SV2AWT defined as 100%
T2 construct: expressed in transfected cells; host or cells: HEK293 (ATCC CRL-1573), crude membranes
Protocol: (§2) Data are shown as mean ± s.d.; n = 6 biological replicates. […] Data are shown as mean ± s.d.; n = 6 biological replicates. […] Residual binding observed at 70 min was defined as 0%. For WT, data are shown as mean ± s.d. […] For the DMSO group, data are shown as mean ± s.d. (n = 4 biological replicates); for the other groups, data are shown as mean (n = 2). Source data for (A, D, E, F) are provided as a Source data file.
as §1
(§3) An equal volume of dimethyl sulfoxide (DMSO) was added to control reactions. Reactions were arrested after 2 h by trapping the membranes on a Unifilter-GF/C 96-well filter plate pre-soaked with 0.1%(w/v) polyethyleneimine. Membranes were washed four times with 0.2 ml of cold binding buffer, dried, and 40 µl of scintillation liquid was added to each well. Radioactivity was monitored in MicroBeta2 plate counter. Residual binding observed in presence of either 10 µM ^1H-UCB-J or 10 µM ^1H-padsevonil was considered as background and subtracted from total binding. Estimates for Kd and Bmax were obtained by fitting the data to one site-specific binding curve using GraphPad Prism 10.

SV2A WT and mutants [2] = test: as above; design: species or system human; conditions: Phe188, Tyr461 or Ser601 mutated to alanine
Protocol: as §2, §1, §3

T1 sequence (Q7L0J3 141-742): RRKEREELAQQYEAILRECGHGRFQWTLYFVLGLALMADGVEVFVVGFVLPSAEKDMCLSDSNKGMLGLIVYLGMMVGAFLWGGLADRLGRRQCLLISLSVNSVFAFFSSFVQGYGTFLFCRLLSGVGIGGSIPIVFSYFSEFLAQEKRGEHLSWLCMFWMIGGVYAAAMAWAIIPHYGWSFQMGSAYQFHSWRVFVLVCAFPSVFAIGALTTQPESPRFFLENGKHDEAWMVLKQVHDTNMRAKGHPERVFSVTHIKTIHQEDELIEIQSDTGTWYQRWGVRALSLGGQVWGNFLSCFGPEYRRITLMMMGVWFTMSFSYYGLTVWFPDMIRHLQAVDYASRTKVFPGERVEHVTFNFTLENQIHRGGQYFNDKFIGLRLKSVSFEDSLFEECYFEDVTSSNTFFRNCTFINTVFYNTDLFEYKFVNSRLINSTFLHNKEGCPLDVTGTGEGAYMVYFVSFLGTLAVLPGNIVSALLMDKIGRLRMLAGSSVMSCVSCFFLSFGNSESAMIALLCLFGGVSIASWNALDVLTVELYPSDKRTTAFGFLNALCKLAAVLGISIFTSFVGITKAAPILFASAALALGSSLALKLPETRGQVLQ
T2 sequence (Q7L0J3 whole entry M301A): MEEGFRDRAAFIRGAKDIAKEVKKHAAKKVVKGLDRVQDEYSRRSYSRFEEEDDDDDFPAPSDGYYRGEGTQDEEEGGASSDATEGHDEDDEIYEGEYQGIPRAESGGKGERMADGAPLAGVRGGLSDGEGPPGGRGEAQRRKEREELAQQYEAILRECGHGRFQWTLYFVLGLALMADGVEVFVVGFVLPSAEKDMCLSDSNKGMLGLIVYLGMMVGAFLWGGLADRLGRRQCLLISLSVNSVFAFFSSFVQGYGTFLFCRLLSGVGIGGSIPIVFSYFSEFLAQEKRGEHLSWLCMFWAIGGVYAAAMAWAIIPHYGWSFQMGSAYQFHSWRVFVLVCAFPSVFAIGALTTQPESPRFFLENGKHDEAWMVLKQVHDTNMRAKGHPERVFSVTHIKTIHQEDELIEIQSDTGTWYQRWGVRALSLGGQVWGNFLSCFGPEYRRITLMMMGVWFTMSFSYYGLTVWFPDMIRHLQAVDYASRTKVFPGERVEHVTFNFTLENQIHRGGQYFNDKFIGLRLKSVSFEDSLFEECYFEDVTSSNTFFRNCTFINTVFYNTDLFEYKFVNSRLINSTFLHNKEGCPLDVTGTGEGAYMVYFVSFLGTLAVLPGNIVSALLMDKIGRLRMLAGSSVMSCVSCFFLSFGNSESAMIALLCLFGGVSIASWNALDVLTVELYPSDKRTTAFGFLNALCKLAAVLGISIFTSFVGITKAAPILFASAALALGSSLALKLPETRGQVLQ

COc1ccccc1NC(=O)CC(C)Cc1cc(C)cc(C)c1 (stereo not drawn) [UCB1244283]
3H-UCB-J Binding (%) (SV2AEM; pre-incubate 10 μM UCB1244283, 0 min): 0.02% and 0.00168% | 3H-UCB-J Binding (%) (SV2AEM; pre-incubate 10 μM UCB1244283, 0.5 min): 0.16% and 0.14% | 3H-UCB-J Binding (%) (SV2AEM; pre-incubate 10 μM UCB1244283, 1 min): 0.20% and 0.18% | 3H-UCB-J Binding (%) (SV2AEM; pre-incubate 10 μM UCB1244283, 1.5 min): 0.16% and 0.22% | 3H-UCB-J Binding (%) (SV2AEM; pre-incubate 10 μM UCB1244283, 2 min): 0.23% and 0.25% | 3H-UCB-J Binding (%) (SV2AEM; pre-incubate 10 μM UCB1244283, 2.5 min): 0.16% and 0.30% | 3H-UCB-J Binding (%) (SV2AEM; pre-incubate 10 μM UCB1244283, 3 min): 0.29% and 0.33% | 3H-UCB-J Binding (%) (SV2AEM; pre-incubate 10 μM UCB1244283, 3.5 min): 0.30% and 0.35% | 3H-UCB-J Binding (%) (SV2AEM; pre-incubate 10 μM UCB1244283, 4 min): 0.29% and 0.36% | 3H-UCB-J Binding (%) (SV2AEM; pre-incubate 10 μM UCB1244283, 4.5 min): 0.41% and 0.37% | 3H-UCB-J Binding (%) (SV2AEM; pre-incubate 10 μM UCB1244283, 5 min): 0.39% | 3H-UCB-J Binding (%) (SV2AEM; pre-incubate 30 μM UCB1244283, 0 min): 0.00112% and 0.00142% | 3H-UCB-J Binding (%) (SV2AEM; pre-incubate 30 μM UCB1244283, 0.5 min): 0.10% | 3H-UCB-J Binding (%) (SV2AEM; pre-incubate 30 μM UCB1244283, 1 min): 0.11% | 3H-UCB-J Binding (%) (SV2AEM; pre-incubate 30 μM UCB1244283, 1.5 min): 0.13% and 0.12% | 3H-UCB-J Binding (%) (SV2AEM; pre-incubate 30 μM UCB1244283, 2 min): 0.14% | 3H-UCB-J Binding (%) (SV2AEM; pre-incubate 30 μM UCB1244283, 2.5 min): 0.14% and 0.15% | 3H-UCB-J Binding (%) (SV2AEM; pre-incubate 30 μM UCB1244283, 3 min): 0.15% | 3H-UCB-J Binding (%) (SV2AEM; pre-incubate 30 μM UCB1244283, 3.5 min): 0.14% and 0.15% | 3H-UCB-J Binding (%) (SV2AEM; pre-incubate 30 μM UCB1244283, 4 min): 0.16% | 3H-UCB-J Binding (%) (SV2AEM; pre-incubate 30 μM UCB1244283, 4.5 min): 0.22% and 0.16% | 3H-UCB-J Binding (%) (SV2AEM; pre-incubate 30 μM UCB1244283, 5 min): 0.23% and 0.19% | UCB1244283 modulation (%) (SV2A WT and mutants [1]): 204.26% and 178.72% and 164.89% and 193.57% and 161.39% and 224.53% and 226.42% | allosteric potentiation of 3H-UCB-J binding (SV2A WT and mutants [2]): loss of allosteric potentiation
